# Laboratory results reported in US12404279B2, “Deubiquitinase inhibitors and methods of use thereof” (Molecure S.A., priority 2021, dated 2025).
# “Also recorded” adds a separate entry of the source.
# Columns and labels:
# [1] = tested on: CD4+ T cells; assay: Immunomodulatory effect on isolated, anti-CD3/anti-CD28 activated CD4+ T cells from C57BL/6 mice; type: cell-based
# Source text: (§1) Splenocytes from three C57BL/6 mice donors were isolated separately. Next, specific CD4^+ cells were extracted from all splenocytes with EasySep™ Mouse CD4^+ T cell Isolation Kit by negative selection (StemCell; Cat. #19852). The purity of splenic CD4^+ T cells exceeded 95%, as confirmed by flow cytometric analysis following staining with anti-mouse CD3 and CD4 antibodies. Pure CD4^+ cells were subsequently seeded in RPMI full medium (50 000 cells/well) on 96-well U-bottom plate covered with 1 μg/mL antiCD3 and 1 μg/mL antiCD28 (for stimulation and activation). Then. […] The final concentration of DMSO in wells was 0.03%. After 72 h, lymphocyte activation was evaluated by counting, testing viability (LDH Assay, CellTiter Glo Assay) and cytokine. Statistical significance of observed effects was determined based on mean values calculated from technical replicates for each mouse (n=9; experiment was performed three times). • 1. ATP level in cell lysates (CellTiterGlo Viability Assay. Promega;) • 2. LDH level in cell culture medium • 3. Cell counting (Orange-Acridine staining, Luna automated cell counter, Logos Biosystems) • 4. mTNF-α in supernatants (ELISA) • 5. mIFN-γ in supernatants (ELISA) • 6. Magpix Luminex (T-Cells Panel: GM-CSF, IFN-γ, IL-10 TNF-α)
# [2] = as above; type: cell-based; conditions: C57BL/6; activated mouse CD4+ T cells, 72 h; read-out: cytotoxicity IC50 (cell viability, CellTiter Glo Assay)
# Source text: as §1
# [3] = tested on: mouse CD8+ T cells; assay: Cytotoxic effect on mouse CD8+ T cells (splenocytes, flow cytometry); type: cell-based; conditions: 24 hours of incubation
# Description: In these experiments, the mouse splenocytes were seeded into in 24-well plate and after 24 hours of incubation with USP7 inhibitors the T cells viability was analyzed with flow cytometry. […] Mann-Whitney test.
# [4] = tested on: CT26 model of colon carcinoma; assay: Antitumor efficacy in the subcutaneous CT26 syngeneic model of colon carcinoma
# Description: The 7-8-week old BALB/c females (BALB/cAnNCrl, Charles River Laboratories) were injected subcutaneously in the right flank with 5×10^5 CT26 cells. USP7 inhibitors were dosed by oral gavage twice per day at indicated doses starting from 2-5 days after the tumor implantation. […] Tumor volume was estimated by a formula: width×length×depth×π/6.
# [5] = tested on: CT26 cells; assay: Killing assay: splenocytes of tumor-bearing mice co-cultured with CT26 cells; type: cell-based, mouse; conditions: co-culture with CT26 cells 1:10 and 1:50, 36 h
# Description: To investigate the killing capability of T cells the splenocytes were isolated from tumor-bearing mice treated and untreated with different concentrations of Example 77. CT26 cells were seeded and stained with Green Cell Tracker. Stained CT26 cells were co-cultured with splenocytes from experimental animals in two ratios 1:10 and 1:50. After 36 h cells were harvested and analyzed on the flow cytometer.
# [6] = tested on: CD4+ T cells; assay: In vivo and ex vivo immunomodulatory effect in BALB/c mice (splenic CD4+ T cells); type: cell-based
# Description: BALB/c mice (10-week-old females, n=3) were administered with Example 77 at 200 mg/kg (BID) by oral gavage for 3 consecutive days. Untreated mice were used as the control group (n=3). Animals were sacrificed 16 hours following the last dosing. The spleens were collected and total CD4^+ lymphocytes were isolated by bead-based negative separation according to the manufacturers manual (EasySep™ Mouse CD4+ T cell Isolation Kit, StemCell; Cat. #19852). The purity of splenic CD4^+ T cells exceeded 95%, as confirmed by flow cytometric analysis following staining with anti-mouse CD3 and CD4 antibodies. Isolated CD4^+ T cells were seeded in triplicates (50 000 cells/well in RPMI full medium) on 96-well U-bottom plate covered with 1 μg/mL anti-CD3 and 1 μg/mL anti-CD28 antibodies (for stimulation and activation of cells). Following one hour preincubation in 37° C. degree, CD4^+ T cells were treated with 2 μM of Example 77, the final concentration of DMSO in wells was 0.03%. After 72 h lymphocytes activation was evaluated by testing viability, cytotoxicity and cytokine release: mTNF-α and mIFN-γ.
# • 1. ATP level in cell lysates (CellTiterGlo Viability Assay, Promega) • 2. Lactate dehydrogenase (LDH) level in cell culture medium (LDH-Glo Cytotoxicity Assay, Promega) • 3. Cell counting (Fluorescence staining, Luna automated cell counter, Logos Biosystems) • 4. mTNF-α in supernatants by ELISA • 5. mIFN-γ in supernatants by ELISA
# [7] = molecular target: full-length USP7 (Homo sapiens (Human), UniProt Q93009); assay: Enzymatic assay to determine IC50 of USP7 inhibitors (Ubiquitin-Rhodamine 110 cleavage); type: biochemical; conditions: 0.5 nM USP7, 0.5 μM Ubiquitin-Rhodamine 110, 45 min at 37° C.
# In short: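 Enzyme: 0.5 nM full-length USP7 in HEPES pH 7.5 buffer with NaCl, DTT, BSA and Tween20, given 15 min at room temperature with DTT before compounds were added.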
# [8] = 0.5-2.5 μM, 72 h, ELISA / Magpix Luminex
# [9] = 0.5-2.5 μM, 72 h, Magpix Luminex
# [10] = 2 μM, 72 h, LDH-Glo cytotoxicity assay
# Sequence of full-length USP7 (Q93009 whole entry): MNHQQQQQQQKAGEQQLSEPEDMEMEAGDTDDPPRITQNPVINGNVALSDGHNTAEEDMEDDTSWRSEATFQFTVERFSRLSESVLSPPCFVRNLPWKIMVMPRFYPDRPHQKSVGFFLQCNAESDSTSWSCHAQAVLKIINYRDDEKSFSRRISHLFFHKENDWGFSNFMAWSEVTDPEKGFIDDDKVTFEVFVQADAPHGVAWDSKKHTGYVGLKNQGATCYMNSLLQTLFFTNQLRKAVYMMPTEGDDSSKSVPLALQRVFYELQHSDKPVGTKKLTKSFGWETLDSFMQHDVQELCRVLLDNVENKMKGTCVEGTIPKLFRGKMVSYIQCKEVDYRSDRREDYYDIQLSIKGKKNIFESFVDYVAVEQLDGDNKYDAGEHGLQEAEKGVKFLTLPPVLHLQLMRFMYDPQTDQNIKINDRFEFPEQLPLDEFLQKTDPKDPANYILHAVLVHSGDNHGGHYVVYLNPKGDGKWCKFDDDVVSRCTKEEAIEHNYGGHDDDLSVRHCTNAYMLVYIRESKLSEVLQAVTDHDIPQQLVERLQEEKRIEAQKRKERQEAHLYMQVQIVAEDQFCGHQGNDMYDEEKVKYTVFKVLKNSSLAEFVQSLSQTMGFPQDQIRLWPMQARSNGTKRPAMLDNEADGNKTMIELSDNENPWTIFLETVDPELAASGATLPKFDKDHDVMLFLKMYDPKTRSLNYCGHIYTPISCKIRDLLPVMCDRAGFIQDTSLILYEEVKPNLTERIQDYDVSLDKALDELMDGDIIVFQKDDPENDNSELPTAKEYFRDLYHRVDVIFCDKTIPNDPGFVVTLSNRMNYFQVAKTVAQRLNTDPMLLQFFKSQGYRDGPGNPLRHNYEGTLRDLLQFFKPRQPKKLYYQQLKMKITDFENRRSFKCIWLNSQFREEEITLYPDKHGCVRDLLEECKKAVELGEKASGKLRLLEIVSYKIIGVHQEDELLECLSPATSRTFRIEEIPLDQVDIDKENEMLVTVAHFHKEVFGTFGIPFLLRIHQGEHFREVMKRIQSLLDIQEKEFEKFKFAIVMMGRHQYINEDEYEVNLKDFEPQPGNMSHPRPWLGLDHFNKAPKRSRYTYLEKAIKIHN
structure (smiles),measurement,setting,value
"CN[C@H]1CCN(C(=O)c2c(C)cc(C(F)(F)F)nc2-c2ccnc3cc(CN4C(=O)C5C(C4=O)C5(C)C)sc23)C1.Cl.Cl (stereo partly drawn) [Example 77, 6,6-dimethyl-3-((7-(4-methyl-3-((S)-3-(methylamino)pyrrolidine-1-carbonyl)-6-(trifluoromethyl)pyridin-2-yl)thieno[3,2-b]pyridin-2-yl)methyl)-3-azabicyclo[3.1.0]hexane-2,4-dione dihydrochloride]",IFNg level in supernatants,[1]; [8],Statistically significant increase
same,TNFa level in supernatants,[1]; [8],not affected
same,GM-CSF level in supernatants,[1]; [9],Statistically significant increase
same,IL-10 level in supernatants,[1]; [9],not affected
same,times less cytotoxic than the reference RAPT compound,"[1]; CellTiter Glo Assay, head to head",10
same,"viability by cell counting (Luna cell counter, trypan blue)",[1]; after 72 h of incubation,comparable to that obtained with CellTiter Glo
same,CD4+ T cells activation and pro-inflammatory cytokine release,[1]; low concentration (0.5-2.5 μM),does not disturb
same,IC50 at 72 h,[2],~9 µM
same,cytotoxicity to CD8 T cells,[3],limited
same,TGI,"[4]; 100 mg/kg PO BID, anti-PD-1 combination experiment",69%
same,increase in survival time vs. anti-PD-1 monotherapy group,"[4]; 100 mg/kg PO BID, log-rank test",26%
same,percent of CD8+ T cells in tumor,"[4]; 100 mg/kg, cytometric analysis",increase
same,interferon-γ production in CD8+ T cells,"[4]; 100 mg/kg, data not shown",enhanced amounts
same,granzyme B production in CD8+ T cells,"[4]; 100 mg/kg, flow cytometry",enhanced amounts
same,antitumor effect after injection of CD8-depleting anti-CD8 antibodies,"[4]; anti-CD8 antibody 100 μg intraperitoneally on days 1, 7 and 14, dihydrochloride",completely abrogated; also recorded: requires CD8+ T cells
same,effect on the therapeutic effect of anti-PD-1 antibody,"[4]; combination with anti-PD-1 antibody, dihydrochloride",potentiated; also recorded: increases the efficiency
same,tumor growth inhibition (TGI),"[4]; dose-dependent, oral gavage BID, day 20 post-inoculation, p=0.048",up to 67%
same,survival time,"[4]; survival analysis, anti-PD-1 combination experiment",29 days
same,killing capability of splenocytes from treated CT26-bearing mice vs. control mice,[5],enhanced killing capability
same,pro-inflammatory cytokines release after additional ex vivo treatment of isolated T-cells,"[6]; 2 μM ex vivo, 72 h",additionally increases
same,total ATP level (CellTiter Glo Assay),"[6]; 2 μM, 72 h",didn't affect
same,CD4+ T cells activation and pro-inflammatory cytokines release: TNF-α and IFN-γ,"[6]; 2 μM, 72 h, ELISA",does not affect
same,LDH concentration in the culture medium vs. positive control,[6]; [10],≤ 5%
same,cytotoxicity for CD4+ T-cells,[6]; [10],not cytotoxic
same,T cells viability,"[6]; CD4+ T cells, 2 μM, 72 h",does not affect
same,ex vivo pro-inflammatory cytokine release of activated CD4+ T cells from treated mice vs. control mice,[6]; mice dosed 200 mg/kg BID by oral gavage for 3 days,much more
same,IC50,[7],< 0.5 µM
